Activity calls are given as the source filed them. No cut-off for these calls is given here.
How the values were obtained:
BV-2 [1] = assay: Antiinflammatory activity in mouse BV2 cells assessed as inhibition of LPS-stimulated iNOS protein expression at 40 uM preincubated for 30 mins followed by LPS-stimulation measured after 16 hrs by Western blotting analysis; format: functional, cell-based
BV-2 [2] = assay: Antiinflammatory activity in LPS-stimulated mouse BV2 cells assessed as inhibition of NO production after 24 hrs by Griess method; format: functional, cell-based
BV-2 [3] = assay: Antiinflammatory activity in mouse BV2 cells assessed as inhibition of LPS-stimulated TNF-alpha mRNA expression preincubated for 30 mins followed by LPS-stimulation by RT-PCR analysis; format: functional, cell-based
Mus musculus [4] = assay: Neuroprotective activity in ip dosed mouse middle cerebral artery occlusion model assessed as reduction in infarction volume administered 1 hr prior to onset of ischemia measured after 24 hrs by TTC staining-based microscopic analysis; format: functional, organism-based
BV-2 [5] = assay: Antiinflammatory activity in mouse BV2 cells assessed as inhibition of LPS-stimulated IL-1beta mRNA expression preincubated for 30 mins followed by LPS-stimulation by RT-PCR analysis; format: functional, cell-based
BV-2 [6] = assay: Antiinflammatory activity in mouse BV2 cells assessed as inhibition of LPS-stimulated COX-2 protein expression at 40 uM preincubated for 30 mins followed by LPS-stimulation measured after 16 hrs by Western blotting analysis; format: functional, cell-based
[7] = Antiinflammatory activity in LPS-stimulated mouse BV2 cells assessed as inhibition of NO production at 40 uM after 24 hrs by Griess method relative to control; format: functional; conditions: BV-2, 24 h
BV-2 [8] = assay: Antiinflammatory activity in mouse BV2 cells assessed as inhibition of LPS-stimulated COX-2 mRNA expression preincubated for 30 mins followed by LPS-stimulation by RT-PCR analysis; format: functional, cell-based
Mus musculus [9] = assay: Neuroprotective activity in mouse middle cerebral artery occlusion model assessed as reduction in activated microglial cells in medial periphery of cortical infarct area at 30 mg/kg, ip administered 1 hr prior to onset of ischemia measured after 24 hrs by Iba-1 staining-based microscopic analysis; format: functional, organism-based; design: dose 30 mg/kg
[10] = Cytotoxicity against mouse BV2 cells assessed as cell viability at 40 uM after 24 hrs by MTT assay relative to control; format: cell-based, BV-2; conditions: read-out: Activity
BV-2 [11] = assay: Antiinflammatory activity in mouse BV2 cells assessed as inhibition of LPS-stimulated iNOS mRNA expression preincubated for 30 mins followed by LPS-stimulation by RT-PCR analysis; format: functional, cell-based

Question: Which inhibition (BV-2 [1]) does the source give for `COC(=O)CC[C@@H](C)[C@H]1CC[C@H]2[C@@H]3[C@H](O)C(=O)[C@H]4C[C@H](O)CC[C@]4(C)[C@H]3CC[C@]12C` here?
Answer: Active

Question: What about the inhibition (BV-2 [2]) of the same compound?
Answer: Dose-dependent effect

Question: What about the inhibition (BV-2 [3]) of the same compound?
Answer: Dose-dependent effect

Question: And the Activity (Mus musculus [4])?
Answer: Dose-dependent effect

Question: What about the inhibition (BV-2 [5]) of the same compound?
Answer: Dose-dependent effect

Question: And the inhibition (BV-2 [6])?
Answer: Active

Question: What about the inhibition at 40 µM [7] of the same compound?
Answer: 73.6%

Question: And the inhibition (BV-2 [8])?
Answer: Dose-dependent effect

Question: And the Activity (Mus musculus [9])?
Answer: Active

Question: What about the viability at 24 h, 40 µM [10] of the same compound?
Answer: 95.4%

Question: And the inhibition (BV-2 [11])?
Answer: Dose-dependent effect

— ChEMBL document CHEMBL3112432, “Synthesis of 5α-cholestan-6-one derivatives and their inhibitory activities of NO production in activated microglia: discovery of a novel neuroinflammation inhibitor” (Bioorg Med Chem Lett, 2014)
